Structures can show the parent of a compound that is named as a salt.

The experiment addresses T1, human GPR120 (Homo sapiens, UniProt Q5NUL3).
T1 construct: expressed in transfected cells; host or cells: CHO-K1
T1 sequence (Q5NUL3 1-361): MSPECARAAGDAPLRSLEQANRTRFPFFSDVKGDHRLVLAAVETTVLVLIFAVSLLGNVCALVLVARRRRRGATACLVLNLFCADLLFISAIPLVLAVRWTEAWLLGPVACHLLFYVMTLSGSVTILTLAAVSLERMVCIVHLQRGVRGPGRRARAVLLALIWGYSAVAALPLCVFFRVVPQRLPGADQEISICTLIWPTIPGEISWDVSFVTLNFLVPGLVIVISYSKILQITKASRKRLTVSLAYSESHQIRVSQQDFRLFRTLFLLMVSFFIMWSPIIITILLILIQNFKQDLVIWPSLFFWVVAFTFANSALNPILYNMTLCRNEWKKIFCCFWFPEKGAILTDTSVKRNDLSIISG
Kind of experiment: Human GPR120 IP1 assay (inositol phosphate turnover). The class given is cell-based. To be noted: IP1 accumulation in CHO-K1 cells stably expressing the short form of human GPR120. An excerpt: The binding of small molecule agonists to the G-protein-coupled receptor GPR120 activates phospholipase C, and leads to the generation of inositol 1,4,5-trisphosphate (InsP3 or IP3). IP3 is subsequently de-phosphorylated to IP1, which accumulates in cells and is stable in the presence of lithium chloride.
In the present method, agonist-induced activation of the human and rat GPR120 receptor was monitored by measuring the accumulation of IP1 in CHO-K1 cells that were stably expressing the short form of human GPR120 (Accession #NM_001195755) or HEK293 cells stably expressing rat GPR120 (Accession #NM_001047088). Following agonist addition, GPR120 activation and subsequent accumulation of IP1 was measured using a homogeneous Time Resolved Fluorescence-based ELISA commercially available from CisBio (IP-one ELISA Kit). The IP-One ELISA was a competitive immunoassay which uses IP1 labeled with […] and a terbium cryptate-labeled anti-IP1 monoclonal antibody. […] The signal loss was then back calculated to IP1 concentration using an IP1 standard curve. Determination of IP1 concentration was a direct measure of GPR120 activation and was used to determine compound potency (EC50).
Human GPR120 stable cell-lines were generated in CHO cells. The expression plasmids were transfected using lipofectamine (Life Technologies) following manufacturer's instructions. Stable cell-lines were generated following drug selection and single cell cloning. Rat GPR120 stable cell-lines were generated in HEK cells using the Jump-In™ cell engineering platform (Life Technologies) following manufacturer's instructions. Stable cell-lines were generated following drug selection and single cell cloning.
The assay was performed in 384-well format. CHO cells stably expressing human GPR120 were plated at 20,000 cells per well in growth medium (DMEM/F12, 10% fetal calf serum). HEK293 cells stably expressing rat GPR120 were plated at […] per well in growth medium (DMEM, 10% fetal calf serum). Cell plates were then incubated 16 hours at 37 degrees in a 5% CO2 incubator. Measurement of Inositol Phosphate Turnover (IP1) was performed using the CisBio IP-One kit (Part number 62IPAPEB). After the 16 hour incubation, the growth media was removed by centrifugation using the BlueWasher (AusWasher GUI Ver. v1.0.1.8) Protocol #21-“Light Dry” and 10 μl of stimulation buffer (prepared as described in the kit) was added to each well. In a separate plate, compounds were diluted in DMSO (200-fold over the final concentration in the assay well) and 50 nl was acoustically transferred to the appropriate well in the assay cell plate. The plates were then incubated for 60 minutes at 37 degrees in a 5% CO2 incubator. 10 μl of detection buffer (also prepared as described in the IP-One kit) was added to each well and the plates were incubated at room temperature for 60 minutes in the dark. The plates were then read in a Perkin ElmerEnVision or equivalent reader able to measure FRET. Fluorescent ratio of emission at 665 and 620 nm was then converted to the IP1 concentration by back calculating from an IP1 standard curve prepared at the time of the assay. The data was normalized to % activity using a reference compound, and the EC50 values were determined using a standard 4-parameter fit.
The EC50 is the concentration at which the effect is half-maximal. In the case of `Oc1cc(-c2ccc(O[C@H]3C[C@@H](COc4ccccc4)C3)nc2)on1` [Example 82, 5-(3-hydroxyisoxazol-5-yl)-2-{[cis-3-(phenoxymethyl)cyclobutyl]oxy}pyridinium chloride], the midpoint of the response, the EC50, lay at 7.1 nM. This counts as single-digit nanomolar.

Compound `Oc1cc(-c2cnc(O[C@H]3C[C@@H](c4cccc(OC(F)F)c4F)C3)cn2)on1` [Example 41, 5-[5-({cis-3-[3-(difluoromethoxy)-2-fluorophenyl]cyclobutyl}oxy)pyrazin-2-yl]isoxazol-3-ol] returned an EC50 of 17 nM. With `Oc1cc(-c2cnc(O[C@H]3C[C@@](F)(c4cc(OC(F)(F)F)ccc4F)C3)cn2)on1` (single isomer, unassigned) [Example 89, 5-[5-({trans-3-fluoro-3-[2-fluoro-5-(trifluoromethoxy)phenyl]-cyclobutyl}oxy)pyrazin-2-yl]isoxazol-3-ol], a half-maximal effect (EC50) was put at 51 nM. This EC50 is about 3-fold higher than that of the compound before. Next, `Oc1cc(-c2cnc(O[C@H]3C[C@@H](Oc4csc(C(F)(F)F)c4)C3)cn2)on1` [Example 69, 5-{5-[(cis-3-{[5-(trifluoromethyl)thiophen-3-yl]oxy}cyclobutyl)oxy]pyrazin-2-yl}isoxazol-3-ol]: 25 nM; `Oc1cc(-c2cnc(O[C@H]3C[C@@H](c4ccc(C5CC5)cc4)C3)cn2)on1` [Example 20, ammonium 5-(5-{[cis-3-(4-cyclopropylphenyl)cyclobutyl]oxy}pyrazin-2-yl)isoxazol-3-olate]: 42 nM. `Oc1cc(-c2ccc(O[C@H]3C[C@](F)(c4ccnc(OC5CC5)c4)C3)nc2)on1` [Example 90]: it took 22 nM to reach a half-maximal effect (EC50). `Oc1cc(-c2cnc(O[C@H]3C[C@@H](c4cc(F)c(Cl)c(F)c4)C3)cn2)on1` [Example 52, 5-(5-{[cis-3-(4-chloro-3,5-di-fluorophenyl)cyclobutyl]oxy}pyrazin-2-yl)isoxazol-3-ol] had a half-maximal effective concentration (EC50) of 28 nM. In the case of `Oc1cc(-c2cnc(O[C@H]3C[C@](F)(c4cc(OC(F)(F)F)ccc4F)C3)cn2)on1` [Example 106, 5-[5-({cis-3-fluoro-3-[2-fluoro-5-(trifluoromethoxy)phenyl]cyclobutyl}oxy)pyrazin-2-yl]isoxazol-3-ol] it was 91 nM. In the case of `Cc1cc([C@H]2C[C@@H](Oc3cnc(-c4cc(O)no4)cn3)C2)ccc1OC(F)(F)F` [Example 44, 5-[5-({cis-3-[3-methyl-4-(trifluoromethoxy)phenyl]cyclobutyl}oxy)pyrazin-2-yl]isoxazol-3-ol] it was 60 nM; in that of `Oc1cc(-c2cnc(O[C@H]3C[C@@H](c4cc(F)c(OC(F)F)c(F)c4)C3)cn2)on1` [Example 53, ammonium 5-[5-({cis-3-[4-(difluoromethoxy)-3,5-di-fluorophenyl]cyclobutyl}oxy)pyrazin-2-yl]isoxazol-3-olate], 14 nM. Next, `Oc1cc(-c2cnc(OC3CC(OCC4CCCC4)C3)cn2)on1` (mixture of isomers) [Example 81, sodium 5-(5-{[cis-3-(cyclopentylmethoxy)cyclobutyl]oxy}pyrazin-2-yl)isoxazol-3-olate (mixture of isomers predominantly cis)]: 31 nM. Compound `Oc1cc(-c2ccc(OC3CCC(c4cccc(OC(F)(F)F)c4)C3)nc2)on1` (single isomer, unassigned) [Example 117, 5-(3-hydroxyisoxazol-5-yl)-2-({3-[3-(trifluoromethoxy)phenyl]cyclopentyl}oxy)pyridinium trifluoroacetate] showed an EC50 of 59 nM.

In the case of `Cc1ccc([C@H]2C[C@H](Oc3cnc(-c4cc(O)no4)cn3)C2)c(F)c1` [Example 47, 5-(5-{[trans-3-(2-fluoro-4-methylphenyl)cyclobutyl]oxy}pyrazin-2-yl)isoxazol-3-ol], the concentration for a half-maximal effect (EC50) worked out at 104 nM.

Turning to `Oc1cc(-c2cnc(OC3CC(OCc4cc(C(F)(F)F)ccc4F)C3)cn2)on1` (mixture of isomers) [Example 79, 5-{5-[(cis-3-{[2-fluoro-5-(trifluoromethyl)benzyl]oxy}cyclobutyl)oxy]pyrazin-2-yl}isoxazol-3-ol (mixture of isomers predominantly cis)], the midpoint of the response, the EC50, lay at 13 nM. Next, `Cc1cc(F)c([C@H]2C[C@@H](Oc3cnc(-c4cc(O)no4)cn3)C2)c(F)c1` [Example 51, ammonium 5-(5-{[cis-3-(2,6-difluoro-4-methyl-phenyl)-cyclobutyl]oxy}pyrazin-2-yl)isoxazol-3-olate]: 16 nM. In the case of `Oc1cc(-c2cnc(O[C@H]3C[C@@H](c4ncc(C(F)(F)F)s4)C3)cn2)on1` [Example 6, 5-[5-({cis-3-[5-(trifluoromethyl)-1,3-thiazol-2-yl]cyclobutyl}oxy)pyrazin-2-yl]isoxazol-3-ol] it was 129 nM; in that of `CC1[C@@H](Oc2cnc(-c3cc(O)no3)cn2)C[C@H]1c1ccccc1` (stereo partly drawn) [Example 92, 5-(5-{[(1S,3R)-2-methyl-3-phenylcyclobutyl]oxy}pyrazin-2-yl)isoxazol-3-ol], 17 nM. In the case of `Oc1cc(-c2ccc(OC3CCC(c4cccc(OC(F)(F)F)c4)C3)nc2)on1` (single isomer, unassigned) [Example 119, 5-(6-((3-(3-(trifluoromethoxy)phenyl)cyclopentyl)oxy)pyridin-3-yl)isoxazol-3-ol] it was 12 nM; in that of `Oc1cc(-c2cnc(O[C@H]3C[C@@H](c4ccc(-c5cc(F)ccn5)cc4)C3)cn2)on1` [Example 17, ammonium 5-[5-({cis-3-[4-(4-fluoropyridin-2-yl)phenyl]cyclobutyl}oxy)pyrazin-2-yl]isoxazol-3-olate], 86 nM; in that of `CC(C)Oc1cc([C@]2(F)C[C@H](Oc3cnc(-c4cc(O)no4)cn3)C2)ccn1` [Example 101, sodium 5-[5-({trans-3-fluoro-3-[2-(propan-2-yloxy)pyridin-4-yl]cyclobutyl}oxy)pyrazin-2-yl]isoxazol-3-olate], 538 nM. On to `Oc1cc(-c2cnc(O[C@H]3C[C@@H](COc4cccc(F)c4)C3)cn2)on1` [Example 84, sodium 5-[5-({cis-3-[(3-fluorophenoxy)methyl]cyclobutyl}oxy)pyrazin-2-yl]isoxazol-3-olate], for which the EC50 was found to be 12 nM. The compound `Cc1ccc([C@H]2C[C@@H](Oc3cnc(-c4cc(O)no4)cn3)C2)c(F)c1` [Example 48, 5-(5-{[cis-3-(2-fluoro-4-methylphenyl)cyclobutyl]oxy}pyrazin-2-yl)isoxazol-3-ol] gave an EC50 of 24 nM.

As for `Oc1cc(-c2cnc(O[C@H]3C[C@@H](c4ccc5c(c4)OC(F)(F)O5)C3)cn2)on1` [Example 40, 5-(5-{[cis-3-(2,2-difluoro-1,3-benzodioxol-5-yl)cyclobutyl]oxy}pyrazin-2-yl)isoxazol-3-ol], the EC50 was 16 nM. On to `Oc1cc(-c2ccc(OC3CC(OCc4cc(F)ccc4C(F)(F)F)C3)nc2)on1` (mixture of isomers) [Example 76, ammonium 5-{6-[(cis-3-{[5-fluoro-2-(trifluoromethyl)benzyl]oxy}cyclobutyl)oxy]pyridin-3-yl)isoxazol-3-olate (mixture of isomers predominantly cis)], for which the EC50 amounted to 138 nM. This EC50 lies about 8.6-fold higher than the previous one. For `Cc1ccc([C@H]2C[C@@H](Oc3cnc(-c4cc(O)no4)cn3)C2)cc1F` [Example 57, 5-(5-{[cis-3-(3-fluoro-4-methylphenyl)cyclobutyl]oxy}pyrazin-2-yl)isoxazol-3-ol], the half-maximal effective concentration (EC50) is 23 nM. With `Oc1cc(-c2ccc(O[C@H]3C[C@@H](c4ncc(C(F)(F)F)cc4F)C3)nc2)on1` [Example 9, sodium 5-[6-({cis-3-[3-fluoro-5-(trifluoromethyl)pyridin-2-yl]-cyclobutyl}oxy)pyridin-3-yl]isoxazol-3-olate], the EC50 came out at 23 nM.
